From ChEMBL document CHEMBL1201862, “PubChem BioAssay data set” (2004) come the findings set out here.

Some test systems named below: SF-539; CAKI-1; HL-60; BT-549; UO-31; NCI-H522; SNB-19; IGROV-1; MDA-MB-435; ACHN; Hs-578T; NCI/ADR-RES; HCC 2998; 786-0; KM12; U-251; RXF 393; LOX IMVI; Malme-3M; A498.
Common to all, as to experiment: NCI anticancer screen, dose series, 48 h

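Briefly, cells in 96-well plates were exposed to five compound concentrations for 48 h, and endpoints were estimated by linear interpolation. Here, GI50 denotes the concentration required for 50% inhibition of growth.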 Calls of active or inactive are those of the source. Rule as the data show it: active = GI50 up to about 1.1 µM and inactive = higher. Some results are limits rather than exact numbers.

In the case of `CN(C)c1ccc(/C=C2\Oc3cc(O)ccc3C2=O)cc1`, the GI50 with SF-539 is > 100 µM (inactive); with CAKI-1 it was > 100 µM (inactive); in the assay with HL-60, 40.5 µM (inactive); with BT-549, 65.8 µM (inactive); in the assay with UO-31, > 100 µM (inactive); in the assay with NCI-H522, 28.1 µM (inactive). Further, the GI50 with SNB-19 was > 100 µM (inactive); in the assay with IGROV-1 it was > 100 µM (inactive); in the assay on MDA-MB-435, 36.9 µM (inactive); in the assay with ACHN it was > 100 µM (inactive); with Hs-578T it was > 100 µM (inactive); with NCI/ADR-RES it was 83.4 µM (inactive). Besides, the GI50 was > 100 µM (inactive) with HCC 2998; > 100 µM (inactive) in the assay on 786-0; 61.2 µM (inactive) in the assay with KM12; 57 µM (inactive) in the assay on U-251; > 100 µM (inactive) with RXF 393.

Regarding `O=C(/C=C(\N=P(c1ccccc1)(c1ccccc1)c1ccccc1)C(F)(F)C(F)(F)C(F)(F)C(F)(F)C(F)(F)C(F)(F)C(F)(F)F)c1ccccc1`, the GI50 with SF-539, in the assay on CAKI-1, with HL-60, with BT-549, in the assay with UO-31 and with SNB-19 was > 100 µM (inactive) in each case. In addition, the GI50 with IGROV-1, in the assay on MDA-MB-435, in the assay on ACHN, with Hs-578T, in the assay on LOX IMVI and with NCI/ADR-RES was > 100 µM (inactive) in each case. Further, the GI50 in the assay with HCC 2998, in the assay on 786-0, in the assay with KM12, in the assay on U-251, in the assay on Malme-3M and in the assay with RXF 393 was > 100 µM (inactive) throughout.

On to `Cc1cc(=O)n2nc(CSc3nnc(S)s3)sc2n1`, for which the GI50 with SF-539, in the assay on CAKI-1, in the assay on HL-60, in the assay with BT-549, in the assay on UO-31 and in the assay on NCI-H522 was > 100 µM (inactive) throughout. The GI50 in the assay with SNB-19, with IGROV-1, with MDA-MB-435, in the assay on ACHN, in the assay with Hs-578T and in the assay with LOX IMVI was > 100 µM (inactive) each time. The GI50 in the assay on NCI/ADR-RES, with HCC 2998, in the assay on 786-0, in the assay with KM12, with U-251 and with Malme-3M was > 100 µM (inactive) throughout. In addition, in the assay with RXF 393, the GI50 was > 100 µM (inactive).

Take `Cc1cc(-c2nc3cccc(O)c3s2)ccc1N`: the GI50 in the assay with SF-539 is 57.4 µM (inactive); in the assay with CAKI-1 it was 20.8 µM (inactive); in the assay on HL-60 it was 22.3 µM (inactive); with BT-549, 18.5 µM (inactive); in the assay with UO-31 it was 4.43 µM (inactive); in the assay on SNB-19, < 0.01 µM (active). In addition, the GI50 was 22.2 µM (inactive) in the assay with IGROV-1; 17.4 µM (inactive) with MDA-MB-435; 18.2 µM (inactive) with ACHN; 5.75 µM (inactive) in the assay with Hs-578T; 26.4 µM (inactive) with LOX IMVI; 21.1 µM (inactive) in the assay on NCI/ADR-RES. The GI50 was 45.3 µM (inactive) in the assay on HCC 2998; 34.1 µM (inactive) in the assay with 786-0; 10.3 µM (inactive) with KM12; 41.1 µM (inactive) in the assay with U-251; > 100 µM (inactive) with RXF 393.

As for `CCOC(=O)C(=O)C(=O)NN(C)C1=NCCN1`, the GI50 in the assay on SF-539, in the assay on HL-60, in the assay with BT-549, in the assay on UO-31, with NCI-H522 and with SNB-19 was > 100 µM (inactive) throughout. Further, the GI50 in the assay on IGROV-1, in the assay on MDA-MB-435, in the assay with ACHN, with Hs-578T, with LOX IMVI and in the assay with NCI/ADR-RES was > 100 µM (inactive) each time. For the same compound, the GI50 in the assay with HCC 2998, with 786-0, in the assay with KM12, with U-251, in the assay with Malme-3M and with RXF 393 was > 100 µM (inactive) throughout.

For the compound `CCCCCCNC(=O)c1cc(C#Cc2cc(OC)ccc2OC)ccc1OC`, the GI50 was > 100 µM (inactive) in the assay with CAKI-1; > 100 µM (inactive) in the assay with A498; 18.9 µM (inactive) in the assay on BT-549; 62.1 µM (inactive) in the assay with UO-31; 6.15 µM (inactive) with NCI-H522; > 100 µM (inactive) with SNB-19. The GI50 in the assay with IGROV-1 was 72.1 µM (inactive); in the assay on MDA-MB-435, 2.75 µM (inactive); with ACHN it was > 100 µM (inactive); in the assay on Hs-578T it was > 100 µM (inactive); in the assay with LOX IMVI it was > 100 µM (inactive); in the assay with NCI/ADR-RES, 47.8 µM (inactive). For the same compound, the GI50 with HCC 2998 was 1.93 µM (inactive); in the assay with 786-0 it was > 100 µM (inactive); with KM12, > 100 µM (inactive); in the assay on U-251, > 100 µM (inactive).

Regarding `Clc1ccc(/C=C/c2nc3ccccc3s2)cc1Cl`, the GI50 was 91.8 µM (inactive) with SF-539; 19.8 µM (inactive) in the assay on CAKI-1; 82 µM (inactive) with HL-60; 30.1 µM (inactive) in the assay with BT-549; 22.1 µM (inactive) with UO-31; > 100 µM (inactive) in the assay on NCI-H522. Besides, the GI50 in the assay on SNB-19 was 30.5 µM (inactive); in the assay with IGROV-1 it was 16.9 µM (inactive); in the assay with MDA-MB-435 it was > 100 µM (inactive); in the assay with ACHN it was 29.4 µM (inactive); in the assay with Hs-578T, 23.7 µM (inactive); with LOX IMVI it was 1.42 µM (inactive). In addition, the GI50 in the assay with NCI/ADR-RES was 63.2 µM (inactive); in the assay on HCC 2998, 97.3 µM (inactive); in the assay on 786-0, 15 µM (inactive); in the assay on KM12, 81.1 µM (inactive); in the assay on U-251 it was 25.7 µM (inactive); in the assay on Malme-3M, 48.2 µM (inactive).

For the compound `Nn1c(Cc2ccc([N+](=O)[O-])cc2)n[nH]c1=O`, the GI50 in the assay on SF-539, in the assay with CAKI-1, with HL-60, with BT-549, with UO-31 and with NCI-H522 was > 100 µM (inactive) throughout. The GI50 in the assay on SNB-19, with IGROV-1, with MDA-MB-435, in the assay on ACHN, in the assay with Hs-578T and with LOX IMVI was > 100 µM (inactive) in each case. The GI50 in the assay with NCI/ADR-RES, in the assay with HCC 2998, in the assay on 786-0, in the assay on KM12, in the assay on U-251 and in the assay on Malme-3M was > 100 µM (inactive) throughout.

Turning to `NNC(=O)c1cc(Cl)ccc1NC(=O)C12CC3CC(CC(C3)C1)C2`, the GI50 was 42.1 µM (inactive) with SF-539; 24.2 µM (inactive) in the assay on CAKI-1; 23 µM (inactive) with HL-60; 37.4 µM (inactive) with BT-549; 17.1 µM (inactive) in the assay on UO-31; 25.4 µM (inactive) in the assay with NCI-H522. For the same compound, the GI50 with SNB-19 is 15.6 µM (inactive); in the assay on IGROV-1 it was 30.8 µM (inactive); in the assay on MDA-MB-435 it was 29.3 µM (inactive); in the assay on ACHN it was 23.6 µM (inactive); in the assay with Hs-578T, 31.8 µM (inactive); with LOX IMVI, 32 µM (inactive). The GI50 in the assay with NCI/ADR-RES was 34.8 µM (inactive); in the assay with HCC 2998, 18.5 µM (inactive); with 786-0 it was 21.4 µM (inactive); in the assay with KM12, 30.1 µM (inactive); in the assay on U-251, 31.4 µM (inactive); in the assay with Malme-3M, 23.6 µM (inactive). The GI50 in the assay on RXF 393 is 37.8 µM (inactive).

For `CCOC(=O)c1nnsc1NC(=O)NCCCCCCn1c(=O)n(CCCCCCNC(=O)Nc2snnc2C(=O)OCC)c(=O)n(CCCCCCNC(=O)Nc2snnc2C(=O)OCC)c1=O`, the GI50 in the assay on CAKI-1 is 76.9 µM (inactive); in the assay with A498 it was 67.1 µM (inactive); in the assay with BT-549 it was 33 µM (inactive); in the assay with UO-31 it was 45.4 µM (inactive); with SNB-19 it was 18.6 µM (inactive); with IGROV-1, 32.1 µM (inactive). Besides, the GI50 is 63.7 µM (inactive) with MDA-MB-435; 47 µM (inactive) in the assay on ACHN; 13.7 µM (inactive) with Hs-578T; > 100 µM (inactive) in the assay on NCI/ADR-RES; 39.5 µM (inactive) in the assay with HCC 2998; 16.7 µM (inactive) in the assay on 786-0. For the same compound, the GI50 with KM12 was 93.3 µM (inactive); in the assay on U-251, 19.3 µM (inactive); with Malme-3M, 25.1 µM (inactive); in the assay with RXF 393, 13.5 µM (inactive).

As to `C/C=C/C=C/c1nc(C#N)c(N)o1`, the GI50 in the assay with SF-539 is > 100 µM (inactive); with CAKI-1 it was > 100 µM (inactive); in the assay with BT-549, > 100 µM (inactive); with UO-31 it was 18.3 µM (inactive); in the assay on NCI-H522, 41.6 µM (inactive); in the assay on SNB-19, > 100 µM (inactive). In addition, the GI50 with IGROV-1, with MDA-MB-435, in the assay with ACHN, in the assay with Hs-578T, with LOX IMVI and in the assay with NCI/ADR-RES was > 100 µM (inactive) each time. In addition, the GI50 with HCC 2998, in the assay on 786-0, in the assay with U-251, in the assay with Malme-3M and in the assay with RXF 393 was > 100 µM (inactive) in each case.
